Laboratory results as given in patent publication US12533426B2, “Ultrafine nanoparticles comprising a functionalized polyorganosiloxane matrix and including metal complexes; method for obtaining same and uses thereof in medical imaging and/or therapy” (NANOH, priority 2010, dated 2026).

Test: Relaxometry of the particles (Bruker Minispec MQ60 NMR analyser, 1.4 T)
Assay type: physicochemical
Conditions: at 50 MHz; gadolinium quantities measured by ICP
Experimental: The relaxivity r1 considered here is a relaxivity per M^n+ ion (for example gadolinium). r1 is found from the following formula: 1/T1=[1/T1]water+r1[M^n+] […]
Moreover, the relaxivity of the particles from Example 15 was measured by relaxometry, the actual quantities of gadolinium being measured by ICP, on a Varian 710-ES instrument.

SMILES: O=C([O-])CN1CCN(CC(=O)[O-])CCN(CC(=O)[O-])CCN(CC(=O)[O-])CC1.[Gd+3] [Gd-DOTA]
- relaxivity r1 (of the gadolinium species): 3.8 s^−1 mM^−1 (of gadolinium)^−1.s^−1
